Reference: patent US5621102A, “Process for preparing enantiomerically pure xanthine derivatives” (Cell Therapeutics, Inc., priority 1995, dated 1997)

Tests used:
[1] = test system: hematopoietic reconstitution following 5-FU; assay: 5-fluorouracil (5-FU) induced bone marrow suppression in mice; assay type: in vivo, Balb/C mice
Text: Groups of 4 mice were phlebotomized at each time point. The values on the graph represent the means ±1 SD.
Groups of 4 mice were phlebotomized at each time point. The values on the group represent the means ±1 SD.
Groups of 4 mice were sacrificed and had one femur harvested at each time point. The values on the graph represent the means ±1 SD of the mean number of colonies per each individual tested in triplicate cultures.
Female Balb/C mice (VAF, Charles River Laboratories, 6-8 wks of age approximately 17.3-18.5 g) were treated with 5-FU at a dose of 200 mg/kg intraperitoneally (i.p.) in experiment 1 or 190 μg/kg in experiment 2. […] Mice (4 per group) were sacrificed starting 2 days after 5-FU by cardiac puncture under halothane anesthesia followed by cervical dislocation and had total white blood cell counts and differential counts performed. Platelet counts were performed using phase-contrast microscopy in duplicate. Femurs were harvested and the number of granulocyte-macrophage colony forming cells (CFU-GM) per femur were measured using a standard assay (Terry Fox Laboratories, Vancouver, British Columbia) using pokeweed mitogen spleen conditioned medium as the growth factor. Each femur was plated separately in triplicate and the mean and means for each experimental point was calculated. Standard deviations used for staffstidal analysis were deviations of the mean number of colonies measured for each femur.
Experiment 2 was similar to experiment 1 with the following exceptions: (1) the dose of 5-FU was decreased to 185 mg/kg; (2) daily blood draws were performed between days 10 and 15; and (3) platelet counts were performed.

[2] = test system: TNF-α release from LPS-activated mouse peritoneal macrophages; assay: TNF-α release from LPS stimulated PEC, ELISA; assay type: cell-based; conditions: Peritoneal macrophage
Protocol: R. Cells were isolated and treated with or without various concentrations of CT1501R one hour prior to LPS activation ([…]). Twenty four hours later the supernalants were collected assayed for TNF-α by ELISA (+/-SD).
Murine peritoneal exudate cell macrophages (PEC) were isolated by perfusion of mouse peritoneum and plated into 96-well trays at 5×10^5 cells per well. […] At various times thereafter, supernatants were removed and levels of either TNF-α or IL-1α were assayed using commercial 96-well microtiter immunoassay kits (Genzyme; TNF; Endogen, Boston, Mass.; IL-1α) according to manufacturer's specifications. […] 4000 cells were plated into each well of a 96-well microtiter plate and allowed to incubate for 72 hrs at 37° C. […] Either the HUVEC or U937 cells were stimulated with either LPS, IL-1α or TNF-α for 12 hrs. For the adhesion assay, U937 cells were labeled with the fluorescent viability stain, 2',7'-bis-(2-carboxyethyl)-5-(and-6)-carboxyfluorescein acetoxymethyl ester (BCECF). […] The cells were washed once with full media and 50,000 cells/well added to the HUVEC cultures. The samples were incubated at 37° C. for 30 min, inverted and centrifuged for 10 min at 400×g. After addition of […] Hanks Balanced Salt Solution (HBSS), the microtiter plate was then analyzed on a Millipore Cytofiuor fluorescent plate reader (excitation 488 nm; emission 525 nm). […]

[3] = test system: TNF-α; assay: mouse plasma TNF-α ELISA after endotoxin; assay type: in vivo, mice
Protocol: Each point represents the average of two experiments compiled from the average of duplicate ELISA measurements with each experimental point representing pooled plasma from three mice.
For ELISA measurements of cytokine levels in plasma, blood was collected by retro-orbital or cardiac puncture of anesthetized mice, immediately centrifuged and the EDTA plasma stored at -70° C. Particulate free plasma was thawed on ice and cytokine levels determined utilizing commercial ELISA assays with normal mouse plasma used to generate standard curves. Murine tumor necrosis factor-α and interleukin-1α kits were purchased from Genzyme (Cambridge, Mass.) and Endogen (Boston, Mass.), respectively. Each data point was an average of two ELISA measurements made from EDTA serum pooled from three mice. The data summarized in Table 3 were compiled from two independent experiments; data from Table 4 and 5 were from single experiments of three mice per data point.
Levels of TNF-α, IL-1α and IL-6 were measured in the plasma of mice as a function of time following treatment with S. abortus endotoxin. […] TNF-α levels peaked within 1 hour of treatment of endotoxin (Table 4 and FIG. 6). Treatment of the mice with CT1501R decreased the levels of TNF-α in the EDTA plasma of endotoxin treated mice at all time points measured. […]

[4] = test system: IL-1-α release in LPS activated PEC; assay: IL-1α release from LPS activated PEC, ELISA; assay type: cell-based; conditions: Mus musculus, at 24 hours after LPS, read-out: maximum inhibition of IL-1α release
Protocol: Cells were isolated and treated with or without 250 μM CT1501R one hour prior to activation with 10 μg/ml LPS. At various times later, supernatants were harvested and assayed for IL-1-α by ELISA (+/-SD)
Murine peritoneal exudate cell macrophages (PEC) were isolated by perfusion of mouse peritoneum and plated into 96-well trays at 5×10^5 cells per well. Cells were stimulated with 5 μg/ml Salmonella abortus equi-derived endotoxin CLPS; Sigma Chemical Co., L-1887) or 50 ng/ml IL-1α (Genzyme; Cambridge, Mass.) with or without the addition of CT1501R added to the cultures one hour prior to addition of the stimulus. At various times thereafter, supernatants were removed and levels of either TNF-α or IL-1α were assayed using commercial 96-well microtiter immunoassay kits (Genzyme; TNF; Endogen, Boston, Mass.; IL-1α) according to manufacturer's specifications. For the adhesion studies, early passage human umbilical vein endothelial cells (HUVEC) were obtained from commercial suppliers (Clonetics, San Diego, Calif. or Cell Systems, Seattle, Wash.) and cultured in defined, Hepes buffered, serum free medium (Cell Systems, cat 301-180) supplemented with acidic FGF (Cell Systems cat 401-111). […] After addition of […] Hanks Balanced Salt Solution (HBSS), the microtiter plate was then analyzed on a Millipore Cytofiuor fluorescent plate reader (excitation 488 nm; emission 525 nm). […]

## C[C@@H](O)CCCCn1c(=O)c2c(ncn2C)n(C)c1=O [CT1501R, (R)-1-(5-hydroxyhexyl)-3,7-dimethylxanthine]
[1]; 5-FU treated mice
  increase in number of CFU-GM/femur during hematopoietic recovery vs control: approximately two-fold increase
[1]; experiment 1, day 13 (p=0.024 vs vehicle, p=0.05 vs day 0)
  CFU-GM/femur vs vehicle control and day 0: significantly more CFU-GM/femur on day 13
[1]; experiment 1, day 13 after 5-FU (control 180±10/mm^3, P=0.05)
  ANC (absolute neutrophil count), mean ±SD: 440±17 /mm^3
[1]; experiment 1, days 6 and 10 (p=0.019 and 0.036)
  WBC of 5-FU treated mice vs vehicle control: significantly lower in vehicle treated controls than in CT1501R treated mice
[1]; experiment 2
  WBC vs vehicle control: significantly higher WBC's
  neutrophil recovery: Neutrophil recovery was accelerated
  number of cells per femur during hematopoietic recovery vs control: number of cells per femur was increased
  platelet count nadir and rate of recovery vs vehicle control: platelet count nadir and rate of recovery were also increased
[1]; i.p. bid, no 5-FU
  WBC and ANC, mice without 5-FU: remained within 1 SD of control values
  adverse effects, mice without 5-FU: no apparent adverse effects
[1]; no 5-FU, twice daily i.p. injections
  rise in ANC and CFU-GM/femur associated with vehicle injections, mice without 5-FU: prevented both the rise in ANC and rise in CFU-GM/femur
[2]; 500 μM, read-out: inhibitory effects, % of the maximal LPS stimulation (1428 pg/ml)
  inhibition at 500 µM: ~40%
[2]; drug 1 hour before LPS (10 μg/ml LPS), read-out: IC50 for TNF-α inhibition (concentration for 50% inhibition)
  IC50: ~30 µM
[3]; 0.5 hour post endotoxin
  decrease of peak plasma TNF-α vs endotoxin only: 2.5 fold
[3]; 1 hour post endotoxin
  decrease of peak plasma TNF-α vs endotoxin only: 2.6 fold
[4]
  inhibition at 250 µM: ~50%
